Results: US20070043011A1, “Substituted benzanilide compound and noxious organism controlling agent” (priority 2003, published 2007)
Where two headings read alike, the source gives them in different places.

Key:
Assay type in all cases: in vivo
[1] = test system: diamondback moths (Plutella xylostella); test: Insecticidal test against diamondback moth (leaf dip); conditions: foliar, 144 h, read-out: insecticidal rate (rate of dead insects)
Method: (§1) A 10% emulsifiable concentrate (depending on the compounds, 25% wettable powder was applied for the test) of the compound of the present invention was diluted with water containing a spreading agent to prepare a chemical solution with a concentration of 100 ppm. To the chemical solution was dipped leaves of Chinese olive for about 10 seconds, and after air-drying, they were placed in a laboratory dish, then, 10 diamondback moths (Plutella xylostella) with second instar larvae per the dish were released therein, and the dish was covered with a lid having holes and contained at a thermostat chamber at 25° C. A number of dead insect(s) after 6 days was counted and a rate of dead insects was calculated in the same manner as in Test Example 1. Incidentally, the test was carried out with two districts.

[2] = test system: Common cutworms (Spodoptera litura); test: Insecticidal test against common cutworm (leaf dip); conditions: foliar, 144 h, read-out: insecticidal rate (rate of dead insects)
Method: as §1, with “10 Common cutworms (Spodoptera litura)” for “10 diamondback moths (Plutella xylostella)”, “calculated by” for “calculated in”, “the following calculation formula.” for “the same manner as in Test Example 1.”, “districts. Rate of dead insects (%)=(Number of dead insects/Number of released insects)×100” for “districts.”

[3] = test system: Common cutworm (Spodoptera litura); test: Insecticidal test (comparative test) against common cutworm, third instar larvae; conditions: leaf dip, counted after 6 days
Method: 10% emulsifiable concentrates of the compound of the present invention and comparative compound were diluted with water containing a spreading agent to prepare chemical solutions with a predetermined concentration. To the chemical solutions was dipped leaves of Chinese olive for about 10 seconds, and after air-drying, they were placed in a laboratory dish, then, 7 Common cutworm (Spodoptera litura) with third instar larvae per the dish were released therein, and the dish was covered with a lid having holes and contained at a thermostat chamber at 25° C. Artificial feed (1 cm^3) was added after 2 days, a number of dead insect(s) was counted after 6 days and a rate of dead insects was calculated by the following calculation formula. Incidentally, the test was carried out with two districts. Rate of dead insects (%)=(Number of dead insects/Number of released insects)×100

[4] = 100 ppm, leaf dip, second instar larvae, after 6 days, 25° C.

SMILES	pest or weed control at 100 ppm [1]	pest or weed control at 100 ppm [2]	Rate of dead insects ([3]; concentration 33 ppm)	pest or weed control at 100 ppm [1, 4]	pest or weed control at 100 ppm [2, 4]	further results
Cc1cc(C(O)(c2ccc3c(c2)OC(F)(F)C(F)(F)O3)C(F)(F)F)ccc1NC(=O)c1cccc(I)c1C(=O)NC(C)C (stereo not shown) [1-028, N^1-[4-[2,2,2-trifluoro-1-hydroxy-1-(2,2,3,3-tetrafluoro-1,4-dioxa-2,3-dihydronaphthalen-6-yl)ethyl]-2-methylphenyl]-3-iodo-N^2-isopropylphthalic diamide]	100%	≥ 80%				
CSCC(C)NC(=O)c1c(I)cccc1C(=O)Nc1ccc(C(O)(c2ccc(Cl)cc2)C(F)(F)F)cc1C (stereo not shown) [1-036]			100%			Rate of dead insects ([3]; concentration 0.1 ppm): 14.3%; Rate of dead insects ([3]; concentration 0.3 ppm): 28.6%; Rate of dead insects ([3]; concentration 1 ppm): 85.7%; Rate of dead insects ([3]; concentration 3 ppm): 100%; Rate of dead insects ([3]; concentration 10 ppm): 100%
CSCC(C)(C)NC(=O)c1c(I)cccc1C(=O)Nc1ccc(C(O)(c2ccc(Cl)cc2)C(F)(F)F)cc1C (stereo not shown) [1-084]			100%			Rate of dead insects ([3]; concentration 0.3 ppm): 0%; Rate of dead insects ([3]; concentration 1 ppm): 21.3%; Rate of dead insects ([3]; concentration 3 ppm): 71.4%; Rate of dead insects ([3]; concentration 10 ppm): 100%
Cc1cc(C(O)(c2ccc(Cl)cc2)C(F)(F)F)ccc1NC(=O)c1cccc(I)c1C(=O)NC(C)(C)CS(C)(=O)=O (stereo not shown) [1-087]			100%			Rate of dead insects ([3]; concentration 0.1 ppm): 0%; Rate of dead insects ([3]; concentration 0.3 ppm): 21.3%; Rate of dead insects ([3]; concentration 1 ppm): 71.4%; Rate of dead insects ([3]; concentration 3 ppm): 100%; Rate of dead insects ([3]; concentration 10 ppm): 100%
CSCC(C)(C)NC(=O)c1c(I)cccc1C(=O)Nc1ccc(C(O)c2ccc(Cl)cc2)cc1C (stereo not shown) [Comparative compound A, reference compound]			0%			
Cc1cc(C(O)(c2ccc(OC(F)(F)F)cc2)C(F)(F)F)ccc1NC(=O)c1cccc(I)c1C(=O)NC(C)C (stereo not shown) [Compound No. 1-009, N^1-[4-[2,2,2-trifluoro-1-hydroxy-1-(4-trifluoromethoxyphenyl)ethyl]-2-methylphenyl]-3-iodo-N^2-isopropylphthalic diamide]	100%	≥ 80%				
Cc1cc(C(O)(c2ccc(OS(C)(=O)=O)cc2)C(F)(F)F)ccc1NC(=O)c1cccc(I)c1C(=O)NC(C)C (stereo not shown) [Compound No. 1-015, N^1-[4-[2,2,2-trifluoro-1-hydroxy-1-(4-methanesulfonyloxyphenyl)ethyl]-2-methylphenyl]-3-iodo-N^2-isopropylphthalic diamide]	100%	≥ 80%				
Cc1cc(C(O)(COc2ccc(Cl)cc2)C(F)(F)F)ccc1NC(=O)c1cccc(I)c1C(=O)NC(C)C (stereo not shown) [Compound No. 2-004, N^1-[4-[2-(4-chlorophenoxy)-1-hydroxy-1-trifluoromethylethyl]-2-methylphenyl]-3-iodo-N^2-isopropylphthalic diamide]				100%	≥ 80%	
Cc1cc(C(O)(C(F)(F)F)C(F)(F)Oc2ccc(Cl)cc2)ccc1NC(=O)c1cccc(I)c1C(=O)NC(C)C (stereo not shown) [Compound No. 2-008, N^1-[4-[2-(4-chlorophenoxy)-2,2-difluoro-1-hydroxy-1-trifluoromethylethyl]-2-methylphenyl]-3-iodo-N^2-isopropylphthalic diamide]				100%	≥ 80%	
Cc1cc(C(O)(C=Cc2ccc(Cl)cc2)C(F)(F)F)ccc1NC(=O)c1cccc(I)c1C(=O)NC(C)C (stereo not shown) [Compound No. 2-018, N^1-[4-[3-(4-chlorophenyl)-1-hydroxy-1-trifluoromethyl-2-propenyl]-2-methylphenyl]-3-iodo-N^2-isopropylphthalic diamide]				100%	≥ 80%	
COC(c1ccc(Cl)cc1)(c1ccc(NC(=O)c2cccc(I)c2C(=O)NC(C)C)c(C)c1)C(F)(F)F (stereo not shown) [Compound No. 3-002, N^1-[4-[1-(4-chlorophenyl)-2,2,2-trifluoro-1-methoxyethyl]-2-methylphenyl]-3-iodo-N^2-isopropylphthalic diamide]	100%	≥ 80%				
Cc1cc2c(cc1NC(=O)c1cccc(I)c1C(=O)NC(C)C)OC(F)(F)C2(O)C(F)(F)F (stereo not shown) [Compound No. 4-002, N^1-(2,2-difluoro-3-hydroxy-5-methyl-3-trifluoromethyl-2,3-dihydrobenzofuran-6-yl)-3-iodo-N^2-isopropylphthalic diamide]				100%	≥ 80%	
